Measured values from patent US4198504A, “[3-(Pyridinium)-7-(naphthyiridinyl carbonylamino)acetamido]cephalosporanic acid derivatives” (Bristol-Myers Company, priority 1978, dated 1980).

Legend:
[1] = test system: Staphylococcus aureus Smith; experiment: In vivo efficacy, experimental infection in mice, intramuscular treatment, Staphylococcus aureus Smith; parameters: species or system Staphylococcus aureus (infected mice); details: im, 120 h, I.M., 100×LD50 challenge i.p., 5 days, read-out: PD50 Staphylococcus aureus Smith
Experimental: (§1) The in vivo efficacy was evaluated by intramuscular treatment against three kinds of experimental infection in mice.
(§2) The in vivo tests were carried out using the following three pathogenic organisms:
Staphylococcus aureus Smith
(§3) Mice were challenged intraperitoneally with approximately a 100×LD50 dose of the pathogens in a 5% mucin suspension. The mice were treated with test compound by I.M. route immediately after the bacterial challenge.

Escherichia coli Juhl = experiment: In vivo efficacy, experimental infection in mice, intramuscular treatment, Escherichia coli Juhl; parameters: species or system Escherichia coli (infected mice); details: im, 120 h, I.M., 100×LD50 challenge i.p., 5 days, read-out: PD50 Escherichia coli Juhl
Experimental: as §1, §2, §3

[2] = test system: Pseudomonas aeruginosa A9843; experiment: In vivo efficacy, experimental infection in mice, intramuscular treatment, Pseudomonas aeruginosa A9843; parameters: species or system Pseudomonas aeruginosa (infected mice); details: A9843, im, 120 h, I.M., 100×LD50 challenge i.p., 5 days, read-out: PD50 Pseudomonas aeruginosa A9843
Experimental: as §1, §2
Pseudomonas aeruginosa A9843
as §3

S. aureus = experiment: In vitro MIC, serial two-fold agar dilution, primary evaluation Gp (S. aureus, 6 strains); assay type: cell-based; details: CBPC = 100%; geometric mean of MICs; Mueller-Hinton agar
Experimental: (§4) Minimun inhibitory concentrations (MIC) were determined by the serial two-fold agar dilution method using Steers' apparatus on Mueller-Hinton agar plate against 31 test organisms for the primary screening and also against 64 strains of Pseudomonas aeruginosa for the secondary evaluation. The results are shown in Table 1 in terms of relative activity with respect to the standard compound CBPC (carbenicillin) which was set at 100%. In each group the calculation was based on the geometric mean of the observed MICs.
*GP = S. aureus (6 strains);

Pseudomonas aeruginosa = experiment: In vitro MIC, serial two-fold agar dilution, secondary evaluation against Pseudomonas aeruginosa strains; assay type: cell-based; details: CBPC = 100%; geometric mean of MICs; 61-64 strains
Experimental: as §4

[3] = Antibiotic blood levels in mice following intramuscular administration (paper disc-agar diffusion, Escherichia coli NIHJ as assay organism); assay type: in vivo; details: mouse, im, I.M., 20 mg./kg.; for half-life: read-out: Blood level, Half-life; for Cmax: read-out: Blood level, Peak Concentration
Experimental: Antibiotic blood levels were determined in mice following intramuscular administration of the test compounds at 20 mg./kg. The blood samples were collected from the orbital sinuses into heparinized capillary tubes at 15, 30, 60 and 120 minutes after administration. The antibiotic concentration was determined by the paper disc-agar diffusion method using Escherichia coli NIHJ as the assay organism.

[4] = test system: Ent. cloacae (3), Pr. vulgaris (1), Pr. morganii (1), S. marcescen (1); experiment: In vitro MIC, serial two-fold agar dilution, primary evaluation Gn-II (Ent. cloacae, Pr. vulgaris, Pr. morganii, S. marcescens); assay type: cell-based; details: CBPC = 100%; geometric mean of MICs; Mueller-Hinton agar
Experimental: as §4
GnII = Ent. cloacae (3), Pr. vulgaris (1), Pr. morganii (1), S. marcescen

Ps. aeruginosa = experiment: In vitro MIC, serial two-fold agar dilution, primary evaluation Ps (6 strains); assay type: cell-based; details: CBPC = 100%; geometric mean of MICs; Mueller-Hinton agar
Experimental: as §4
Ps. = Ps. aeruginosa (6).

[5] = test system: E. coli (9), Klebsiella sp. (2), Pr. mirabilis (1), Sal. enteritidis (1); experiment: In vitro MIC, serial two-fold agar dilution, primary evaluation Gn-I (E. coli, Klebsiella sp., Pr. mirabilis, Sal. enteritidis); assay type: cell-based; details: CBPC = 100%; geometric mean of MICs; Mueller-Hinton agar
Experimental: as §4
GnI = E. coli (9), Klebsiella sp. (2), Pr. mirabilis (1), Sal.

Row | SMILES | ED50 [1] [mg/kg] | ED50 (Escherichia coli Juhl) [mg/kg] | ED50 [2] [mg/kg] | In vitro relative activity, primary evaluation Gp (6) (S. aureus) [%] | In vitro relative activity, secondary, Pseudomonas aeruginosa (61-64) (Pseudomonas aeruginosa) [%] | half-life [3] [min] | Cmax [3] [ng/mL] | In vitro relative activity, primary evaluation Gn-II (6) [4] [%] | In vitro relative activity, primary evaluation Ps (6) (Ps. aeruginosa) [%] | In vitro relative activity, primary evaluation Gn-I (13) [5] [%]
1 | NC(=O)c1cc[n+](CC2=C(C(=O)[O-])N3C(=O)C(NC(=O)[C@H](NC(=O)c4cnc5cccnc5c4O)c4ccc(O)cc4)C3SC2)cc1C(=O)O (stereo partly drawn) [BB-S592, 7-[D-α-(4-Hydroxy-1,5-naphthyridine-3-carboxamido)-α-(4-hydroxyphenyl)acetamido]-3-(4-carbamoyl-3-carboxypyridinium)methyl-3-cephem-4-carboxylate] | 4.6 | 6.25 | 38 | 56 | 695 | 55 | 12000 | 11 | 594 | 121
2 | O=C(O)CSc1cc[n+](CC2=C(C(=O)[O-])N3C(=O)C(NC(=O)[C@H](NC(=O)c4cnc5cccnc5c4O)c4ccc(O)cc4)C3SC2)cc1 (stereo partly drawn) [BB-S599, 7-[D-α-(4-Hydroxy-1,5-naphthyridine-3-carboxamido)-α-(4-hydroxyphenyl)acetamido]-3-(4-carboxymethylthiopyridinium)-methyl-3-cephem-4-carboxylate] | 2.2 | 2.4 | 8.4 | 35 | 2010 | 54 | 7800 | 83 | 2180 | 260
3 | O=C([O-])C1=C(C[n+]2cccc(C(=O)O)c2)CSC2C(NC(=O)[C@H](NC(=O)c3cnc4cccnc4c3O)c3ccc(O)c(Cl)c3)C(=O)N12 (stereo partly drawn) [BB-S600, 7-[D-α-(4-Hydroxy-1,5-naphthyridine-3-carboxamido)-α-(3-chloro-4-hydroxyphenyl)acetamido]-3-(3-carboxypyridinium)-methyl-3-cephem-4-carboxylate] | 2 | 2.2 | 6.2 | 70 | 2500 | 70 | 6200 | 30 | 2340 | 107
4 | O=C(O)C=Cc1ccc[n+](CC2=C(C(=O)[O-])N3C(=O)C(NC(=O)[C@H](NC(=O)c4cnc5cccnc5c4O)c4ccc(O)c(Cl)c4)C3SC2)c1 (stereo partly drawn) [BB-S602, 7-[D-α-(4-Hydroxy-1,5-naphthyridine-3-carboxamido)-α-(3-chloro-4-hydroxyphenyl)acetamido]-3-(3-carboxyvinylpyridinium)-methyl-3-cephem-4-carboxylate] | 0.8 | 1.4 | 8.4 | 58 | 1530 | 60 | 8000 | 63 | 2080 | 94
5 | O=C(O)C=Cc1ccc[n+](CC2=C(C(=O)[O-])N3C(=O)C(NC(=O)[C@H](NC(=O)c4cnc5cccnc5c4O)c4ccccc4)C3SC2)c1 (stereo partly drawn) [BB-S603, 7-[D-α-(4-Hydroxy-1,5-naphthyridine-3-carboxamide)-α-phenyl-acetamido]-3-(3-carboxyvinylpyridinium)methyl-3-cephem-4-carboxylate] | 1.15 | 2.2 | 18 | 73 | 1270 | 44 | 9000 | 38 | 1150 | 80
6 | O=C(O)Cc1ccc[n+](CC2=C(C(=O)[O-])N3C(=O)C(NC(=O)[C@H](NC(=O)c4cnc5cccnc5c4O)c4ccc(O)c(Cl)c4)C3SC2)c1 (stereo partly drawn) [BB-S604, 7-[D-α-(4-Hydroxy-1,5-naphthyridine-3-carboxamido)-α-(3-chloro-4-hydroxyphenyl)acetamido]-3-(3-carboxymethylpyridinium)-methyl-3-cephem-4-carboxylate] | 2.5 | 2.4 | 6.2 | 50 | 2030 | 56 | 10500 | 45 | 1450 | 94
7 | O=C([O-])C1=C(C[n+]2ccc(CCS(=O)(=O)O)cc2)CSC2C(NC(=O)[C@H](NC(=O)c3cnc4cccnc4c3O)c3ccc(O)c(Cl)c3)C(=O)N12 (stereo partly drawn) [BB-S605, 7-[D-α-(4-Hydroxy-1,5-naphthyridine-3-carboxamido)-α-(3-chloro-4-hydroxyphenyl)acetamido]-3-(4-sulfoethylpyridinium)-methyl-3-cephem-4-carboxylate] | 3.1 | 3.1 | 8.4 | 40 | 1300 | 54 | 9400 | 40 | 1310 | 83
8 | O=C([O-])C1=C(C[n+]2cccc(C(=O)O)c2)CSC2C(NC(=O)[C@H](NC(=O)c3cnc4cccnc4c3O)c3ccc(O)c(O)c3)C(=O)N12 (stereo partly shown) [BB-S608] | 8.5 | 1.4 | 2.4 | 13 | 1207 | 50 | 8500 | 14 | 975 | 53
9 | O=C([O-])C1=C(C[n+]2cccc(S(=O)(=O)O)c2)CSC2C(NC(=O)[C@H](NC(=O)c3cnc4cccnc4c3O)c3ccc(O)c(O)c3)C(=O)N12 (stereo partly drawn) [BB-S609, 7-[D-α-(4-Hydroxy-1,5-naphthyridine-3-carboxamido)-α-(3,4-dihydroxyphenyl)acetamido]-3-(3-sulfopyridinium)methyl-3-cephem-4-carboxylate] | 17 | 1.8 | 1.2 | 18 | 1375 | 51 | 7400 | 11 | 1450 | 53
10 | O=C(O)C=Cc1ccc[n+](CC2=C(C(=O)[O-])N3C(=O)C(NC(=O)[C@H](NC(=O)c4cnc5cccnc5c4O)c4ccc(O)c(O)c4)C3SC2)c1 (stereo partly shown) [BB-S610] | 17 | 1.8 | 2.8 | 16 | 491 | 60 | 6200 | 14 | 656 | 57
